Laboratory results from publication PMC9898036, “VIP152 is a selective CDK9 inhibitor with pre-clinical in vitro and in vivo efficacy in chronic lymphocytic leukemia” (Leukemia, 2022).

Key:
Assay type in all cases: binding
PIKFYVE = PIKFYVE (Homo sapiens, UniProt Q9Y2I7); assay: KINOMEscan: PIKFYVE
Protocol: The structure and synthesis of VIP152 were recently described by Lücking et al.. (Fig. 1A); however, the selectivity of the molecule in cellular systems has yet to be explored. […] We also performed this experiment at 1000 nM, where CDK9 was inhibited at 99%. […] We found a strong concordance between our data and those of Lücking when comparing the most inhibited kinases. Potential off-target effects of VIP152 were next tested in vitro at a concentration of 10 µM for off-target activity against a broad range of receptors, transporters, ion channels, and enzymes (n = 138) using the Eurofins Diversity Panel.
Kinomescan Kinase Profiling Assay
Kinomescan Assay was performed at DiscoverRX and described in Fabian, et al. 2005, Nat.
Biotechnol. In brief, kinases were produced and subsequently tagged with DNA for qPCR detection.
Streptavidin-coated magnetic beads were bound to biotinylated kinase ligands to serve as a solid support.
VIP152 was dissolved in DMSO and tested across a 10 serial threefold dilution set and compared to a test compound and a DMSO control. Kinases which were inhibited by VIP152 would not be bound to the solid-support resulting in decreased substrate for the qPCR reaction. Kinome map was produced via TreeSpot Analysis from DiscoverRX. […]
NanoBRETTM Target Engagement Assay Protocol […]
The cell and lipid:DNA […]
complex was dispensed into a sterile tissue culture dish and incubated for 22-24 hours. Test compounds were then delivered from the compound source plate to the wells of a 384-well white NBS plate by Echo 550. Cells with NanoBRET Tracer Reagent were then prepared by first removing media from dish of transfected HEK293 cells via aspiration, trypsinization, and allowing cells to dissociate from the dish. Trypsin was neutralized using medium containing serum and centrifuged at 200g for 5 minutes to pellet the cells. Cell density was then adjusted to 2E05 cells/mL in Opti-MEM without phenol red. Complete 20X NanoBRET Tracer Reagent was prepared with Tracer Dilution Buffer and dispensed at a ratio of 1:20 Reagent to cells in the tube. The cell

[1] = system: Glutamate, NMDA, Phencyclidine; assay: Eurofins Diversity Panel; conditions: rat, Conc. 10 μM
Neuropeptide Y Y2 = Neuropeptide Y Y2 (Homo sapiens, UniProt P49146); assay: Eurofins Diversity Panel; conditions: hum, Conc. 10 μM
Opiate μ(OP3, MOP) = Opiate μ(OP3, MOP) (Homo sapiens, UniProt P35372); assay: Eurofins Diversity Panel; conditions: hum, Conc. 10 μM
Chain of Opiate μ(OP3, MOP) (P35372 whole entry): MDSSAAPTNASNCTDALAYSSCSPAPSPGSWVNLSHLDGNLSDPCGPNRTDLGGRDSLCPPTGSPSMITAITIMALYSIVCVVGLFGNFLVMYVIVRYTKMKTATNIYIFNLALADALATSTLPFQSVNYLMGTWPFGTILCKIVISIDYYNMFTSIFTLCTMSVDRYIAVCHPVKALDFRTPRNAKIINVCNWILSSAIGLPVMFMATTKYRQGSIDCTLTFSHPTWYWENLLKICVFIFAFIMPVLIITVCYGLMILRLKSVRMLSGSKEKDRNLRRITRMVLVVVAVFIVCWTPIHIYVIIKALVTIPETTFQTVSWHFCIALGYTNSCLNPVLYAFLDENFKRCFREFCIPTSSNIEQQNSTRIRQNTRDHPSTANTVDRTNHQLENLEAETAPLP

hERG potassium channel = hERG potassium channel (Homo sapiens, UniProt Q12809); assay: Eurofins Diversity Panel; conditions: hum, Conc. 10 μM
[2] = biological target: Transporter, Norepinephrine (NET) (Homo sapiens, UniProt P23975); assay: Eurofins Diversity Panel; conditions: hum, Conc. 10 μM
Chain of Transporter, Norepinephrine (NET) (P23975 whole entry): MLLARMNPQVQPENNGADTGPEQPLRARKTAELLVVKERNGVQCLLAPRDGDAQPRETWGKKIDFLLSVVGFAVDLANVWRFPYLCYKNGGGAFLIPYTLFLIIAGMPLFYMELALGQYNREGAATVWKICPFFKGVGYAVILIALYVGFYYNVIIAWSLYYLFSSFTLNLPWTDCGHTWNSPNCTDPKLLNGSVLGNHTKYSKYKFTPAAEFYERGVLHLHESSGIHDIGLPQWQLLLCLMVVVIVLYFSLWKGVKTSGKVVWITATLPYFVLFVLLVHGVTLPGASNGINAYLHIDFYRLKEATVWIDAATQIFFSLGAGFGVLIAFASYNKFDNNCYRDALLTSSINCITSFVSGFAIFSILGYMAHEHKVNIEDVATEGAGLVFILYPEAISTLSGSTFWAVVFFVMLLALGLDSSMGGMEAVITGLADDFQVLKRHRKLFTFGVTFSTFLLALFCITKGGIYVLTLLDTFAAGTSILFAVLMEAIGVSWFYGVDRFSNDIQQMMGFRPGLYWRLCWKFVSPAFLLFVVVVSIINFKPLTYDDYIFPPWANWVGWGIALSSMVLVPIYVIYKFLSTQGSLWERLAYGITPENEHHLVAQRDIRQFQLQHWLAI

[3] = biological target: Transporter, Serotonin (5-Hydroxytryptamine) (SERT) (Homo sapiens, UniProt P31645); assay: Eurofins Diversity Panel; conditions: hum, Conc. 10 μM
RIOK2 = RIOK2 (Homo sapiens, UniProt Q9BVS4); assay: KINOMEscan: RIOK2; conditions: 100 nM, read-out: Percent Control
ROS1 = ROS1 (Homo sapiens, UniProt P08922); assay: KINOMEscan: ROS1; conditions: 100 nM, read-out: Percent Control
[4] = biological target: RPS6KA4(Kin.Dom.2-C-terminal) (Homo sapiens, UniProt O75676); assay: KINOMEscan: RPS6KA4(Kin.Dom.2-C-terminal); conditions: 100 nM, read-out: Percent Control
Chain of RPS6KA4(Kin.Dom.2-C-terminal) (O75676 372-772 limits assumed): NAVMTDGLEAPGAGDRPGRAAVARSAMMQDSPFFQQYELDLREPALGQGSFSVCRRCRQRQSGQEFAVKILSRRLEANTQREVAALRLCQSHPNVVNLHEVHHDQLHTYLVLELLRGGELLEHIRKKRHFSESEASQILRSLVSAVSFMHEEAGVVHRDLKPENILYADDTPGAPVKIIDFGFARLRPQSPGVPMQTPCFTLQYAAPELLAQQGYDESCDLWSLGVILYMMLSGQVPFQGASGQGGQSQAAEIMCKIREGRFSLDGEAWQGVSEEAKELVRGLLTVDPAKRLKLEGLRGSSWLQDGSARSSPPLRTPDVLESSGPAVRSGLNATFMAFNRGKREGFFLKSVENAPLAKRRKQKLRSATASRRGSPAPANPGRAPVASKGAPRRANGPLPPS

SGK = SGK (Homo sapiens, UniProt O00141); assay: KINOMEscan: SGK; conditions: 100 nM, read-out: Percent Control
VRK2 = VRK2 (Homo sapiens, UniProt Q86Y07); assay: KINOMEscan: VRK2; conditions: 100 nM, read-out: Percent Control
ALK = ALK (Homo sapiens, UniProt Q9UM73); assay: KINOMEscan: ALK; conditions: 1000 nM, read-out: Percent Control
AURKC = AURKC (Homo sapiens, UniProt Q9UQB9); assay: KINOMEscan: AURKC; conditions: 1000 nM, read-out: Percent Control
CAMK1D = CAMK1D (Homo sapiens, UniProt Q8IU85); assay: KINOMEscan: CAMK1D; conditions: 1000 nM, read-out: Percent Control
CLK4 = CLK4 (Homo sapiens, UniProt Q9HAZ1); assay: KINOMEscan: CLK4; conditions: 1000 nM, read-out: Percent Control
CSNK1G3 = CSNK1G3 (Homo sapiens, UniProt Q9Y6M4); assay: KINOMEscan: CSNK1G3; conditions: 1000 nM, read-out: Percent Control
Chain of CSNK1G3 (Q9Y6M4 whole entry): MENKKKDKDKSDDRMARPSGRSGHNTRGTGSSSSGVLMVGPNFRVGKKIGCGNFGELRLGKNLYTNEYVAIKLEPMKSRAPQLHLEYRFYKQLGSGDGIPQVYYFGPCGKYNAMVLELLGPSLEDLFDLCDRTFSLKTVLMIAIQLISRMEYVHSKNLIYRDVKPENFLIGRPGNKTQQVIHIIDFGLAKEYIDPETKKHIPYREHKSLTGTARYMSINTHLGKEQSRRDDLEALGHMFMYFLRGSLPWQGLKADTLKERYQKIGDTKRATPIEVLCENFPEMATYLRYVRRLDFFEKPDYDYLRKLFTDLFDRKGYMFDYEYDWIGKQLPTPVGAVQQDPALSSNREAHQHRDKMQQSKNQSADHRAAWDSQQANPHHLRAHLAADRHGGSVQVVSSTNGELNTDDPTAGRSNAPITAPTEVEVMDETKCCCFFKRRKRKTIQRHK

CSNK2A1 = CSNK2A1 (Homo sapiens, UniProt P68400); assay: KINOMEscan: CSNK2A1; conditions: 1000 nM, read-out: Percent Control
ERBB4 = ERBB4 (Homo sapiens, UniProt Q15303); assay: KINOMEscan: ERBB4; conditions: 1000 nM, read-out: Percent Control
FLT1 = FLT1 (Homo sapiens, UniProt P17948); assay: KINOMEscan: FLT1; conditions: 1000 nM, read-out: Percent Control
FYN = FYN (Homo sapiens, UniProt P06241); assay: KINOMEscan: FYN; conditions: 1000 nM, read-out: Percent Control
GCN2(Kin.Dom.2,S808G) = GCN2(Kin.Dom.2,S808G) (Homo sapiens, UniProt Q9P2K8, S808G); assay: KINOMEscan: GCN2(Kin.Dom.2,S808G); conditions: 1000 nM, read-out: Percent Control
HUNK = HUNK (Homo sapiens, UniProt P57058); assay: KINOMEscan: HUNK; conditions: 1000 nM, read-out: Percent Control
KIT(V559D,V654A) = KIT(V559D,V654A) (Homo sapiens, UniProt P10721, V559D/V654A); assay: KINOMEscan: KIT(V559D,V654A); conditions: 1000 nM, read-out: Percent Control
LTK = LTK (Homo sapiens, UniProt P29376); assay: KINOMEscan: LTK; conditions: 1000 nM, read-out: Percent Control
MAPKAPK5 = MAPKAPK5 (Homo sapiens, UniProt Q8IW41); assay: KINOMEscan: MAPKAPK5; conditions: 1000 nM, read-out: Percent Control
Chain of MAPKAPK5 (Q8IW41 whole entry): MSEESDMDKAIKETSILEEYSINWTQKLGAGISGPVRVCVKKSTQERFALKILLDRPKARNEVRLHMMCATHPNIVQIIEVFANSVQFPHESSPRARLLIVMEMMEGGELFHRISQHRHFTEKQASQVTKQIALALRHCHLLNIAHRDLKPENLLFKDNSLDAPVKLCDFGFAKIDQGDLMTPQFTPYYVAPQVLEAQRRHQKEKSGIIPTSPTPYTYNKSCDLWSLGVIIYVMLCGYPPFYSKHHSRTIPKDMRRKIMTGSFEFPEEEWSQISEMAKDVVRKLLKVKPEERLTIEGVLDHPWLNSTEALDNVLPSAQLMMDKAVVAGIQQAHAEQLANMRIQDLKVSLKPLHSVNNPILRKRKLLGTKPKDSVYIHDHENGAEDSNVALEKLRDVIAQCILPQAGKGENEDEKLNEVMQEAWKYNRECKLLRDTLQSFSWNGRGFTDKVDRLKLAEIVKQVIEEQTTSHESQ

MEK5 = MEK5 (Homo sapiens, UniProt Q13163); assay: KINOMEscan: MEK5; conditions: 1000 nM, read-out: Percent Control
Chain of MEK5 (Q13163 whole entry): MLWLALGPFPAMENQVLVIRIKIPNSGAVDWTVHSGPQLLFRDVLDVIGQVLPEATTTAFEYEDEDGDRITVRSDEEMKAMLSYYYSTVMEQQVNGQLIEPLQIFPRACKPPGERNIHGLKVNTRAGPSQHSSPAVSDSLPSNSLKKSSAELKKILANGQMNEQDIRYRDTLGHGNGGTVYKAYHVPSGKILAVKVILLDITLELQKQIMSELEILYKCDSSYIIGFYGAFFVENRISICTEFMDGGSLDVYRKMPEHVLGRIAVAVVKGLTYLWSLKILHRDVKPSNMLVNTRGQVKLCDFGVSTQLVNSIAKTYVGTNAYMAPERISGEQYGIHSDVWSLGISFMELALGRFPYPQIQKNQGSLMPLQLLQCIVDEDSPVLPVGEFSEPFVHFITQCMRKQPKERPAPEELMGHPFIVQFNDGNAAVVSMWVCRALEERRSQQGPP

MKK7 = MKK7 (Homo sapiens, UniProt O14733); assay: KINOMEscan: MKK7; conditions: 1000 nM, read-out: Percent Control
MKNK1 = MKNK1 (Homo sapiens, UniProt Q9BUB5); assay: KINOMEscan: MKNK1; conditions: 1000 nM, read-out: Percent Control

Chain of PIKFYVE (Q9Y2I7 whole entry): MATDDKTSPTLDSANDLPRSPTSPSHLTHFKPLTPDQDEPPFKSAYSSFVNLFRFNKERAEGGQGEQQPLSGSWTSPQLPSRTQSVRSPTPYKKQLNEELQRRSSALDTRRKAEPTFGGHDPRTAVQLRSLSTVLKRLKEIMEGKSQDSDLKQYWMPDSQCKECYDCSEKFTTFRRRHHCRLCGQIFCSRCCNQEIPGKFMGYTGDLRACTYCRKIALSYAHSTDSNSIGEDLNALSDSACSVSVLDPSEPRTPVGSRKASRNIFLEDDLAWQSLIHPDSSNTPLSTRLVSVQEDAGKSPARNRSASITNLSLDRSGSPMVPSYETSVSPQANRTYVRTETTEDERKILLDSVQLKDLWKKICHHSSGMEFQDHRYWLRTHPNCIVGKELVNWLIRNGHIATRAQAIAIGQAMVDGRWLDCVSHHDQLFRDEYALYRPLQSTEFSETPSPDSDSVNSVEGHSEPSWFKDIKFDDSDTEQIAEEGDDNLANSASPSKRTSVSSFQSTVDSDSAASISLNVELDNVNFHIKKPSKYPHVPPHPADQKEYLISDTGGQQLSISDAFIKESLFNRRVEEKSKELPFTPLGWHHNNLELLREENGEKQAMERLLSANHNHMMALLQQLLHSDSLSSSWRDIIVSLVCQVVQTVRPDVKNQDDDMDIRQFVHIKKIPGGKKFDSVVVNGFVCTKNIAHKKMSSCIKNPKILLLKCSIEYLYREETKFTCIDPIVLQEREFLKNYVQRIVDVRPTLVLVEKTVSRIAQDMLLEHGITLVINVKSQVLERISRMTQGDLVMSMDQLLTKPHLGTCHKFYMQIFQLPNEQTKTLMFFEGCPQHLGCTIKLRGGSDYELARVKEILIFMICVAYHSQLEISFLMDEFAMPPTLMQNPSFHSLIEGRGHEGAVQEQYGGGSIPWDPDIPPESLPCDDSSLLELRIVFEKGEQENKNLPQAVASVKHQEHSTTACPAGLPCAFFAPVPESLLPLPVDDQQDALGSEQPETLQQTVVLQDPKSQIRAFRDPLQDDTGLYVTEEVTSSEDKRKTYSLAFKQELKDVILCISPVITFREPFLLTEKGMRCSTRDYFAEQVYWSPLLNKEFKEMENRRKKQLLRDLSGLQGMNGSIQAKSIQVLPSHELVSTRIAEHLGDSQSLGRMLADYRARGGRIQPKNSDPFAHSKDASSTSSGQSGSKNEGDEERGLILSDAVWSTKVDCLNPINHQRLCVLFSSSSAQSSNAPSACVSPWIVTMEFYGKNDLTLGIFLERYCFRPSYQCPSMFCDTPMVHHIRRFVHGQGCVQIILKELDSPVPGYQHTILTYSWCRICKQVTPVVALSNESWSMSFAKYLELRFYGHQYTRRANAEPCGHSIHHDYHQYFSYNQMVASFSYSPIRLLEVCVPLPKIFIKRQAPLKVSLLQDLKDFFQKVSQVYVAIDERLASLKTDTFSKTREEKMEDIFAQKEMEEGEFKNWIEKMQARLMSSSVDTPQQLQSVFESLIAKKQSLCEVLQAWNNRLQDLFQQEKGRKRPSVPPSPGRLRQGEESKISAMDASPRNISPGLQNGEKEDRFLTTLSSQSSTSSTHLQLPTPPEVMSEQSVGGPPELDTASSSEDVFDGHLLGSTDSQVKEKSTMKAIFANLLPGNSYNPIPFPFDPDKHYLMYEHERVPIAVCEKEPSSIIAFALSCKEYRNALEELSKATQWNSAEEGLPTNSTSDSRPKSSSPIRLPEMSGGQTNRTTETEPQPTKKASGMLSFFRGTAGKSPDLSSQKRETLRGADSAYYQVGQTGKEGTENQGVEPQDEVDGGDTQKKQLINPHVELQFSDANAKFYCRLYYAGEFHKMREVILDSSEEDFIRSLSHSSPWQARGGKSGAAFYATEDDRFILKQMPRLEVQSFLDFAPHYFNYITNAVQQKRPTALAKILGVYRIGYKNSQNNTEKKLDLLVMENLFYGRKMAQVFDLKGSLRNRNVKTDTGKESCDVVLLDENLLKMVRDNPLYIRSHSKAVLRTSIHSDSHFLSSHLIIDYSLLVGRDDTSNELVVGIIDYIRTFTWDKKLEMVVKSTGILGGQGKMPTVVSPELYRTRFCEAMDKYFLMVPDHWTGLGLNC

## COc1cc(F)ccc1-c1cc(Nc2cc(CS(C)(=N)=O)ccn2)ncc1F (stereo not shown) [VIP152]
PIKFYVE; 100 nM, read-out: inhibition of PIKFYVE relative to control
  inhibition at 0.1 µM: 74%
PIKFYVE; PIKFYVE, 100 nM, read-out: Percent Control
  remaining binding at 0.1 µM: 26%
PIKFYVE; kinase PIKFYVE (Entrez PIKFYVE), compound concentration 1000 nM, read-out: Percent Control
  remaining binding at 1 µM: 55%
[1]
  % Inh.: 5%
Neuropeptide Y Y2
  inhibition at 10 µM: 3%
Opiate μ(OP3, MOP)
  inhibition at 10 µM: 8%
hERG potassium channel
  inhibition at 10 µM: 26%
[2]
  inhibition at 10 µM: 37%
[3]
  inhibition at 10 µM: -3%
RIOK2
  remaining binding at 0.1 µM: 100%
ROS1
  remaining binding at 0.1 µM: 100%
[4]
  remaining binding at 0.1 µM: 100%
SGK
  remaining binding at 0.1 µM: 100%
VRK2
  remaining binding at 0.1 µM: 97%
ALK
  remaining binding at 1 µM: 92%
AURKC
  remaining binding at 1 µM: 38%
CAMK1D
  remaining binding at 1 µM: 99%
CLK4
  remaining binding at 1 µM: 88%
CSNK1G3
  remaining binding at 1 µM: 97%
CSNK2A1
  remaining binding at 1 µM: 97%
ERBB4
  remaining binding at 1 µM: 88%
FLT1
  remaining binding at 1 µM: 86%
FYN
  remaining binding at 1 µM: 91%
GCN2(Kin.Dom.2,S808G)
  remaining binding at 1 µM: 100%
HUNK
  remaining binding at 1 µM: 100%
KIT(V559D,V654A)
  remaining binding at 1 µM: 100%
LTK
  remaining binding at 1 µM: 100%
MAPKAPK5
  remaining binding at 1 µM: 89%
MEK5
  remaining binding at 1 µM: 52%
MKK7
  remaining binding at 1 µM: 100%
MKNK1
  remaining binding at 1 µM: 98%
